According to patent US20150252047A1, “SUBSTITUTED INDAZOL-PYRROLOPYRIMIDINES USEFUL IN THE TREATMENT OF HYPERPROLIFERATIVE DISEASES” (BAYER PHARMA AKTIENGESELLSCHAFT, priority 2012, published 2015):

Target: T1, human full-length MKNK1 (Homo sapiens, UniProt Q9BUB5, T385D)
T1 construct: GST (N); purchased Carna Biosciences 02-145; host or cells: insect cells (baculovirus expression system)
Assay: MKNK1 kinase high ATP assay (TR-FRET)
Type: biochemical
Conditions: high ATP (2 mM final), 15 min preincubation with enzyme, 30 min reaction at 22° C.
Method: MKNK1-inhibitory activity at high ATP of compounds of the present invention after their preincubation with MKNK1 was quantified employing the TR-FRET-based MKNK1 high ATP assay as described in the following paragraphs.
A recombinant fusion protein of Glutathione-S-Transferase (GST, N-terminally) and human full-length MKNK1 (amino acids 1-424 and T344D of accession number BAA 19885.1), expressed in insect cells using baculovirus expression system and purified via glutathione sepharose affinity chromatography, was purchased from Carna Biosciences (product no 02-145) and used as enzyme. As substrate for the kinase reaction the biotinylated peptide biotin-Ahx-IKKRKLTRRKSLKG (C-terminus in amide form) was used, which can be purchased e.g. from the company Biosyntan (Berlin-Buch, Germany).
For the assay 50 nL of a 100 fold concentrated solution of the test compound in DMSO was pipetted into a black low volume 384 well microtiter plate (Greiner Bio-One, Frickenhausen, Germany), 2 μL of a solution of MKNK1 in aqueous assay buffer [50 mM HEPES pH 7.5, 5 mM MgCl2, 1.0 mM dithiothreitol, 0.005% (v/v) Nonidet-P40 (Sigma)] was added and the mixture was incubated for 15 min at 22° C. to allow pre-binding of the test compounds to the enzyme before the start of the kinase reaction. Then the kinase reaction was started by the addition of 3 μL of a solution of adenosine-tri-phosphate (ATP, 3.3 mM=>final conc. in the 5 μL assay volume is 2 mM) and substrate (0.1 μM=>final conc. in the 5 μL assay volume is 0.06 μM) in assay buffer and the resulting mixture was incubated for a reaction time of 30 min at 22° C. The concentration of MKNK1 was adjusted depending of the activity of the enzyme lot and was chosen appropriate to have the assay in the linear range, typical concentrations were in the range of 0.003 μg/mL. The reaction was stopped by the addition of 5 μL of a solution of TR-FRET detection reagents (5 nM streptavidine-XL665 [Cisbio Bioassays, Codolet, France] and 1 nM anti-ribosomal protein S6 (pSer236)-antibody from Invitrogen [#44921G] and 1 nM LANCE EU-W1024 Labeled ProteinG [Perkin-Elmer, product no. AD0071]) in an aqueous EDTA-solution (100 mM EDTA, 0.1% (w/v) bovine serum albumin in 50 mM HEPES pH 7.5).
The resulting mixture was incubated for 1 h at 22° C. to allow the formation of complex between the phosphorylated biotinylated peptide and the detection reagents. Subsequently the amount of phosphorylated substrate was evaluated by measurement of the resonance energy transfer from the Eu-chelate to the streptavidine-XL. Therefore, the fluorescence emissions at 620 nm and 665 nm after excitation at 350 nm were measured in a TR-FRET reader, e.g. a Rubystar (BMG Labtechnologies, Offenburg, Germany) or a Viewlux (Perkin-Elmer). The ratio of the emissions at 665 nm and at […] was taken as the measure for the amount of phosphorylated substrate. The data were normalised (enzyme reaction without inhibitor=0% inhibition, all other assay components but no enzyme=100% inhibition).

T1 sequence (Q9BUB5 1-424 isoform Q9BUB5-2 T344D): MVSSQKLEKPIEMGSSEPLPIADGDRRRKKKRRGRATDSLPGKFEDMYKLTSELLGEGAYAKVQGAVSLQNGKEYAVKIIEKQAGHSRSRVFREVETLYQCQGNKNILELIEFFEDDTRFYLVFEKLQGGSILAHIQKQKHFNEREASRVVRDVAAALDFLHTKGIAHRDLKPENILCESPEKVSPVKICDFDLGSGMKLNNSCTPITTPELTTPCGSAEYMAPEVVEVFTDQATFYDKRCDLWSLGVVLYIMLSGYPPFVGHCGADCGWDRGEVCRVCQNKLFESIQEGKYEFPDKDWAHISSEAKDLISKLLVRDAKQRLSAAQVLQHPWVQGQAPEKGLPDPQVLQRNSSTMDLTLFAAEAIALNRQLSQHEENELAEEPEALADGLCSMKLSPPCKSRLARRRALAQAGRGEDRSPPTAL

Compound | IC50
CC(C)Oc1cc2[nH]ncc2cc1Nc1ncnc2[nH]cc(C#N)c12 [Example 34, 4-[(6-Isopropoxy-1H-indazol-5-yl)amino]-7H-pyrrolo[2,3-d]pyrimidine-5-carbonitrile] | 2 nM
COc1cc2[nH]ncc2cc1Nc1ncnc2[nH]cc(C#N)c12 [Example 35, 4-[(6-Methoxy-1H-indazol-5-yl)amino]-7H-pyrrolo[2,3-d]pyrimidine-5-carbonitrile] | 1 nM
COc1cc2[nH]ncc2cc1Nc1ncnc2[nH]cc(C)c12 [Example 39, N-(6-Methoxy-1H-indazol-5-yl)-5-methyl-7H-pyrrolo[2,3-d]pyrimidin-4-amine] | 1 nM
CCOC(=O)c1cc2c(Nc3cc4cn[nH]c4cc3OC)ncnc2[nH]1 [Example 42, Ethyl 4-[(6-methoxy-1H-indazol-5-yl)amino]-7H-pyrrolo[2,3-d]pyrimidine-6-carboxylate] | 3 nM
N#Cc1n[nH]c2ccc(Nc3ncnc4[nH]ccc34)cc12 [Example 43, 5-(7H-Pyrrolo[2,3-d]pyrimidin-4-ylamino)-1H-indazole-3-carbonitrile] | 1340 nM
CCOc1cc2[nH]ncc2cc1Nc1ncnc2[nH]c(CC)c(C)c12 [Example 44, N-(6-Ethoxy-1H-indazol-5-yl)-6-ethyl-5-methyl-7H-pyrrolo[2,3-d]pyrimidin-4-amine] | 3 nM
CCCc1[nH]c2ncnc(Nc3cc4cn[nH]c4cc3OC(C)C)c2c1CC [Example 45, 5-Ethyl-N-[6-(propan-2-yloxy)-1H-indazol-5-yl]-6-propyl-7H-pyrrolo[2,3-d]pyrimidin-4-amine] | 21 nM
CCCc1[nH]c2ncnc(Nc3cc4cn[nH]c4cc3OC)c2c1CC [Example 46, 5-Ethyl-N-(6-methoxy-1H-indazol-5-yl)-6-propyl-7H-pyrrolo[2,3-d]pyrimidin-4-amine] | 2 nM
CCOC(=O)c1[nH]c2ncnc(Nc3cc4cn[nH]c4cc3OC)c2c1Br [Example 47, Ethyl 5-bromo-4-[(6-methoxy-1H-indazol-5-yl)amino]-7H-pyrrolo[2,3-d]pyrimidine-6-carboxylate] | < 1 nM
COc1cc2[nH]ncc2cc1Nc1ncnc2[nH]c(C(=O)O)c(Br)c12 [Example 48, 5-Bromo-4-[(6-methoxy-1H-indazol-5-yl)amino]-7H-pyrrolo[2,3-d]pyrimidine-6-carboxylic acid] | < 1 nM
COc1cc2[nH]ncc2cc1Nc1ncnc2[nH]cc(C(F)(F)F)c12 [Example 49, N-(6-Methoxy-1H-indazol-5-yl)-5-(trifluoromethyl)-7H-pyrrolo[2,3-d]pyrimidin-4-amine] | 16 nM
COc1cc2[nH]ncc2cc1Nc1ncnc2[nH]c(S(=O)(=O)c3ccccc3)cc12 [Example 50, N-(6-Methoxy-1H-indazol-5-yl)-6-(phenylsulfonyl)-7H-pyrrolo[2,3-d]pyrimidin-4-amine] | < 1 nM

Second part, the molecule after the results:

IC50 | Compound
34 nM | CC(C)Oc1cc2[nH]ncc2cc1Nc1ncnc2[nH]c(Br)cc12 [Example 36, 6-Bromo-N-[6-(propan-2-yloxy)-1H-indazol-5-yl]-7H-pyrrolo[2,3-d]pyrimidin-4-amine]
23 nM | COc1cc2[nH]ncc2cc1Nc1ncnc2[nH]c(C)cc12 [Example 37, N-(6-Methoxy-1H-indazol-5-yl)-6-methyl-7H-pyrrolo[2,3-d]pyrimidin-4-amine]
1 nM | Cc1c[nH]c2ncnc(Nc3cc4cn[nH]c4cc3OC(C)C)c12 [Example 38, 5-Methyl-N-[6-(propan-2-yloxy)-1H-indazol-5-yl]-7H-pyrrolo[2,3-d]pyrimidin-4-amine]
29 nM | CC(C)Oc1cc2[nH]ncc2cc1Nc1ncnc2[nH]c(Cl)cc12 [Example 40, 6-Chloro-N-[6-(propan-2-yloxy)-1H-indazol-5-yl]-7H-pyrrolo[2,3-d]pyrimidin-4-amine]
21 nM | COc1cc2[nH]ncc2cc1Nc1ncnc2[nH]c(Cl)cc12 [Example 41, 6-Chloro-N-(6-methoxy-1H-indazol-5-yl)-7H-pyrrolo[2,3-d]pyrimidin-4-amine]
